Assay results: publication PMC8359378 (British Journal of Clinical Pharmacology, 2021)

Experiments:
[1] = tested on: rabbit abdominal incision bleeding model; conditions: in combination with clopidogrel; cited from earlier work
[2] = tested on: activated partial thromboplastin time (aPTT); experiment: activated partial thromboplastin time; assay type: in vivo, human
[3] = tested on: monkey nail‐cut bleeding model; conditions: preclinical; cited from earlier work
[4] = Part A, single dose 5 mg, fasted
[5] = Part A, single dose 20 mg, fasted
[6] = Part A, single dose 80 mg, fasted
[7] = Part A, single dose 150 mg, fasted

SMILES: Nc1ccc(-c2nc([C@H]3CCc4cc(-c5cc(Cl)ccc5-n5cnnn5)cc(=O)n43)c(F)[nH]2)c(F)n1 [ONO‐7684]
- bleeding risk compared with rivaroxaban [1]: lower bleeding risk than rivaroxaban
- time of maximal prolongation of aPTT post‐dose ([2]; Part A, 80 mg fed group): approximately 8 hours
- aPTT Day 1 24 hours RTB, mean ± SD ([2]; Part A, single dose 1 mg, fasted): 1.00 ± 0.034
- aPTT Day 1 24 hours RTB, mean ± SD [2, 4]: 1.10 ± 0.061
- aPTT Maximum on treatment RTB, mean ± SD [2, 4]: 1.18 ± 0.054
- aPTT Day 1 24 hours RTB, mean ± SD [2, 5]: 1.15 ± 0.119
- aPTT Maximum on treatment RTB, mean ± SD [2, 5]: 1.40 ± 0.016
- aPTT Day 1 24 hours RTB, mean ± SD [2, 6]: 1.54 ± 0.111
- aPTT Maximum on treatment RTB, mean ± SD [2, 6]: 1.83 ± 0.172
- aPTT Day 1 24 hours RTB, mean ± SD ([2]; Part A, single dose 80 mg, fed): 1.61 ± 0.128
- aPTT Maximum on treatment RTB, mean ± SD ([2]; Part A, single dose 80 mg, fed): 1.74 ± 0.163
- aPTT Day 1 24 hours RTB, mean ± SD [2, 7]: 1.63 ± 0.031
- aPTT Maximum on treatment RTB, mean ± SD [2, 7]: 1.97 ± 0.078
- aPTT Day 1 24 hours RTB, mean ± SD ([2]; Part A, single dose 300 mg, fasted): 1.99 ± 0.139
- time of maximal prolongation of aPTT post‐dose ([2]; Part A, single dose of 20–300 mg): approximately 4 hours
- aPTT Maximum on treatment RTB, mean ± SD ([2]; Part B, 80 mg QD for 14 days, fed): 2.07 ± 0.152
- aPTT Day 1 24 hours RTB, mean ± SD ([2]; Part B, 80 mg QD, fed): 1.53 ± 0.119
- aPTT Day 14 24 hours RTB, mean ± SD ([2]; Part B, 80 mg QD, fed): 1.87 ± 0.163
- aPTT Maximum on treatment RTB, mean ± SD ([2]; Part B, 150 mg QD for 14 days, fed): 2.35 ± 0.275
- aPTT Day 1 24 hours RTB, mean ± SD ([2]; Part B, 150 mg QD, fed): 1.78 ± 0.174
- aPTT Day 14 24 hours RTB, mean ± SD ([2]; Part B, 150 mg QD, fed): 2.06 ± 0.261
- aPTT Day 1 24 hours RTB, mean ± SD ([2]; Part B, 250 mg QD, fed): 2.06 ± 0.091
- aPTT Day 14 24 hours RTB, mean ± SD ([2]; Part B, 250 mg QD, fed): 2.53 ± 0.146
- time of maximal aPTT prolongation post‐dose ([2]; Part B, first dose of 80, 150 and 250 mg): approximately 4 hours
- bleeding time [3]: did not prolong bleeding time
